Laboratory results reported in US5552267A, “Solution for prolonged organ preservation” (priority 1994, dated 1996).

Tests used:
[1] = test system: cardiac graft vasculature; assay: perfusion of donor grafts by microspheres, nitric oxide series; format: in vivo, rat; settings: 12 h preservation in LR
Description: Ten minutes after restoration of blood flow, 0.5 ml of 10 μm diameter microspheres (10^6 /ml) (E-Z Trac, Los Angeles, Calif.) was injected into the donor aortic root. Deposition of microspheres in ventricular tissue was assessed following alkaline hydrolysis, washing, and counting of microspheres as described^8, with results expressed as number of spheres per (40×) field per gram of ventricle. A minimum of ten fields were counted and the mean ±SEM is reported.

nitric oxide synthase = assay: cardiac nitric oxide synthase activity (L-arginine to L-citrulline conversion); format: biochemical, rat; settings: LR with vs without supplement, 12 h
Description: Hearts were either freshly explanted, preserved, or preserved/transplanted (with 10 min. of reperfusion), after which they were excised. The coronary arteries were flushed with physiologic saline, the atria and great vessels excised, and the ventricular cavities rinsed free of residual intracavitary blood. Samples were flash-frozen in liquid nitrogen and stored at -80° C. until the time of assay. Extracts were prepared by homogenizing tissue at 4° C. in the presence of protease inhibitors (aprotinin, epsilon amino caproic acid, PMSF, pepstatin A, and chymostatin), and centrifuging (20,000 rpm×20 min) to remove cellular debris. The extract (20 μg of protein by the method of Lowry^15) was incubated for 60 min. in the presence of CaCl2 (10 μM), FAD (8 μM), dithiothreitol (60 μM)(Sigma), tetrahydrobiopterin (8 μM; B. Schirks, Switzerland), and ^3 H-L-arginine (0.072 μM, 5 μCi;, Amersham, Arlington Heights, Ill.). Thin layer chromatography (TLC) was performed with 5 μl of the reaction mix, using methanol:chloroform:water:ammonium hydroxide (9:2:8:3) as the running solvent. Silica gel TLC plates (Sigma) were stained with ninhydrin (1 g/500 ml ethanol) and the spots corresponding to L-arginine, L-ornithine, and L-citrulline cut out and counted. […] Results are expressed as the mean ±SEM of 3 determinations.

heart = assay: heterotopic rat cardiac transplant, nitric oxide series, graft survival/score; format: in vivo, rat (male Sprague-Dawley); settings: for graft survival: NTG 0.1 mg/ml where added
Source text: Male Sprague-Dawley rats (350 grams, Camm Research, Wayne, N.J.) were used, and harvest, preservation, and transplantation procedures performed as described^8. Preservation solutions included lactated Ringer's (LR) solution (Baxter, Edison, N.J.), or LR supplemented with nitroglycerin (DuPont, Wilmington, Del.), sodium nitroprusside (Roche Laboratories, Nutley, N.J.), N^G -monomethyl-L-arginine (L-NMMA; Chembiochem, Salt Lake City, Utah), L-arginine (Sigma Chemical Co., St. Louis, Mo.), or 8-bromoguanosine3',5'monophosphate (8-Br-cGMP; Sigma). Components were combined within 4 hrs of donor cardiectomy, and preservation solutions were kept at 4° C. All of these solutions were at the pH of LR (6.6). University of Wisconsin solution (UW) was purchased from Dupont. […] Ten minutes after removal of the cross-clamp, an electrocardiogram was taken (Grass Polygraph, Quincy, Mass.) and the heart was judged by the same blinded investigators throughout based on the presence/absence of regular contractions and a transplant score (0-5, worst-best, respectively) employing the following criteria: contraction (poor=0, average=1, vigorous=2), tissue turgor (hard=0, average=1, soft=2), and color (dusky=0, pink=1).
Graft survival data was analyzed by contingency analysis (chi-square). Transplant scores, microsphere perfusion, myeloperoxidase, NO synthase, and platelet serotonin release data were analyzed using ANOVA for unpaired variables with the Tukey test used to discriminate significant differences between group means. Values are expressed as means ±SEM, with a p<0.05 considered statistically significant.

[2] = test system: graft tissue oxidant stress; assay: thiobarbituric acid reactive substances (TBARs); format: in vivo, rat; settings: NTG in EC, 6 h
Description: Thirty minutes following ligation of the native right pulmonary artery, or at the time of recipient death, transplanted lungs were removed, rinsed briskly in physiologic saline, and snap frozen in liquid nitrogen until the time of myeloperoxidase or TBARs assay.
The assay was performed by homogenizing tissue in 1.15% KCl (10 ml/gm of tissue). To 0.2 ml of 10% (w/v) tissue homogenate, the following was added; 0.2 mL of 8.1% sodium dodecyl sulfate (SDS; Sigma), 1.5 mL of 20% acetic acid solution (pH 3.5), 1.5 mL of 0.8% aqueous solution of thiobarbituric acid (Sigma), and 0.6 mL of double distilled water. This mixture was heated to 95° C. for 60 minutes followed by rapid cooling to room temperature. An organic extraction was performed by adding 1.0 mL of double distilled water and 5.0 mL of n-butanol:pyridine (15:1, v/v), vortexing, and then centrifuging at 4000 rpm for 10 minutes. The water-immiscible (organic) layer was recovered for measurement of absorbance at 532 nm. Experiments were performed using 1,1,3,3,-tetramethoxypropane as a standard, with the level of lipid peroxides expressed as nmol of malondialdehyde (MDA)/mg protein. Protein content was determined by the method of Lowry et. al^38.

| Structure (SMILES) | graft blood flow [1] | nitric oxide synthase activity after transplantation (nitric oxide synthase) | concentration of maximal benefit (heart; 8-Br-cGMP dose-response, 12 h in LR) | effect on graft preservation (words) (heart; 12 h in LR) | effect on graft preservation (words) (heart; 12 h in LR, listed as 8-bromo-cGMP) | graft oxidant stress, TBARs [2] | graft survival (heart; 24-28 h in UW) | graft survival (heart; 12 h in LR) | concentration of maximal effect (heart; NTG dose-response, 12 h in LR) |
| --- | --- | --- | --- | --- | --- | --- | --- | --- | --- |
| Nc1nc2c(nc(Br)n2[C@@H]2O[C@@H]3COP(=O)(O)O[C@H]3[C@H]2O)c(=O)[nH]1 [8-Br-cGMP, 8-bromoguanosine-3'5' cyclic monophosphate] | enhanced blood flow | similar | 0.5 mM | enhanced cardiac preservation in a dose-dependent manner | enhanced graft survival | – | – | – | – |
| O=[N+]([O-])OCC(CO[N+](=O)[O-])O[N+](=O)[O-] [NTG, nitroglycerin] | enhanced blood flow | similar | – | – | – | reduced graft oxidant stress | 100% | 92% | 0.1 mg/mL |
